Some test systems named below: SK-MEL-5; NCI-H23; CAKI-1; MDA-MB-435; SN12C; HOP-62; SNB-19; SR; NCI-H522; SF-539; UACC-257; HOP-92; OVCAR-4; HCC 2998; SF-295; OVCAR-5; NCI-H226; EKVX.
Holding throughout (experiment): NCI tumour cell line growth inhibition, 48 h

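Grown in 96-well plates, cells were treated for 48 hours with each compound at five concentrations. Insufficient inhibition: endpoint recorded as highest concentration tested. GI50: concentration for 50% inhibition of growth.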 The source made the active and inactive calls. Rule as the data show it: active = GI50 up to about 1.1 µM and inactive = higher.

In the case of `CCN(CCCl)c1cc(CN(C)C)cc(NC(=O)C23CCC(C(=O)Nc4cc(CN(C)C)cc(N(CC)CCCl)c4)(CC2)CC3)c1`, the GI50 with SK-MEL-5 was 1.75 µM (inactive); in the assay with NCI-H23, 0.424 µM (active); in the assay with CAKI-1, 11.1 µM (inactive); with MDA-MB-435 it was 1.39 µM (inactive); with SN12C, 0.245 µM (active); in the assay with HOP-62, 0.372 µM (active). The GI50 with SNB-19 is 0.113 µM (active); in the assay with SR, 0.0329 µM (active); with NCI-H522, 0.202 µM (active); in the assay with SF-539, 0.443 µM (active); with UACC-257, 3.96 µM (inactive); with HOP-92, 1.43 µM (inactive). In addition, the GI50 in the assay with OVCAR-4 is 1.4 µM (inactive); in the assay with HCC 2998, 1.33 µM (inactive); in the assay with SF-295 it was 1.59 µM (inactive); in the assay on OVCAR-5, 1.5 µM (inactive); in the assay with NCI-H226 it was 1.4 µM (inactive).
As for `Cc1ccc(S(=O)(=O)NC(=O)Nc2nnc(S(N)(=O)=O)s2)cc1`, the GI50 with SK-MEL-5, with NCI-H23, with CAKI-1, in the assay with MDA-MB-435, in the assay on HOP-62 and in the assay with SNB-19 was > 100 µM (inactive) throughout. Also, the GI50 with SR, in the assay with SF-539, in the assay on HOP-92, in the assay with OVCAR-4, with EKVX and in the assay with HCC 2998 was > 100 µM (inactive) throughout. The GI50 in the assay with SF-295, in the assay with OVCAR-5 and in the assay with NCI-H226 was > 100 µM (inactive) each time.
As to `C=CC(C)(C)C(=C)C(=O)N(C)c1ccccc1I`, the GI50 in the assay with SK-MEL-5 is 72.8 µM (inactive); in the assay with NCI-H23, 84.1 µM (inactive); in the assay on CAKI-1, > 100 µM (inactive); in the assay on MDA-MB-435 it was > 100 µM (inactive); with SN12C, > 100 µM (inactive); in the assay with HOP-62 it was > 100 µM (inactive). Further, the GI50 was > 100 µM (inactive) with SNB-19; > 100 µM (inactive) with SR; > 100 µM (inactive) with NCI-H522; > 100 µM (inactive) with UACC-257; > 100 µM (inactive) in the assay with HOP-92; 48.3 µM (inactive) with OVCAR-4. The GI50 is > 100 µM (inactive) in the assay with EKVX; > 100 µM (inactive) in the assay with HCC 2998; > 100 µM (inactive) in the assay on SF-295; > 100 µM (inactive) in the assay with OVCAR-5; 95.7 µM (inactive) in the assay on NCI-H226.
Consider `Cc1cc2c3c([nH]c2c2ccnc(C)c12)CCCC3`, for which the GI50 is 1.55 µM (inactive) in the assay on SK-MEL-5; 2.86 µM (inactive) in the assay with NCI-H23; 1.88 µM (inactive) with MDA-MB-435; 1.77 µM (inactive) with SN12C; 1.79 µM (inactive) in the assay on HOP-62; 1.93 µM (inactive) in the assay on SR. For the same compound, the GI50 is 1.85 µM (inactive) in the assay with SF-539; 1.81 µM (inactive) in the assay on UACC-257; 2.6 µM (inactive) with HOP-92; 2.24 µM (inactive) in the assay on OVCAR-4; 2.07 µM (inactive) with EKVX; 1.95 µM (inactive) in the assay with HCC 2998. In addition, the GI50 is 2.12 µM (inactive) with SF-295, 3.65 µM (inactive) in the assay with OVCAR-5 and 12.1 µM (inactive) in the assay with NCI-H226.
With `O=C1c2c(ccc3c2CCCC3)CC12Cc1ccc3c(c1C2=O)CCCC3`, the GI50 in the assay on SK-MEL-5, in the assay with NCI-H23, with MDA-MB-435, in the assay with HOP-62, with SNB-19 and in the assay with SR was > 100 µM (inactive) in each case. In addition, the GI50 with NCI-H522 is > 100 µM (inactive); with SF-539, > 100 µM (inactive); in the assay with UACC-257, > 100 µM (inactive); with HOP-92, 60.7 µM (inactive); in the assay on OVCAR-4 it was > 100 µM (inactive); in the assay with EKVX, > 100 µM (inactive). The GI50 in the assay with HCC 2998, in the assay on SF-295 and with OVCAR-5 was > 100 µM (inactive) in each case.
`CC(=O)OC1CC[C@@]2(C)C(C1)CC(OC(C)=O)[C@@H]1C2CC(OC(C)=O)[C@]2(C)C(C(C)CC=C(c3ccc(Cl)cc3)c3ccc(Cl)cc3)CCC12` (stereo not given in full): the GI50 with SK-MEL-5 was 55.1 µM (inactive); in the assay on MDA-MB-435, > 100 µM (inactive); with SN12C, > 100 µM (inactive); in the assay with HOP-62, 94.4 µM (inactive); in the assay on SNB-19, 58.6 µM (inactive); in the assay on SR it was 20.2 µM (inactive). Further, the GI50 was 21.8 µM (inactive) with NCI-H522; 67.3 µM (inactive) in the assay on SF-539; 38.6 µM (inactive) in the assay on UACC-257; 76.6 µM (inactive) with OVCAR-4; 97.1 µM (inactive) in the assay with EKVX; 94 µM (inactive) in the assay on HCC 2998. The GI50 is 52.1 µM (inactive) with SF-295 and 36.8 µM (inactive) in the assay on OVCAR-5.
Turning to `COc1ccc(C2OC2C(=O)C23CC4CC(CC(C4)C2)C3)cc1` (stereo not given), the GI50 in the assay on SK-MEL-5 was 77.8 µM (inactive); in the assay on NCI-H23, 76 µM (inactive); with MDA-MB-435, 48.6 µM (inactive); in the assay on SN12C, 36.8 µM (inactive); in the assay with HOP-62 it was 31.1 µM (inactive); with SNB-19, 33.3 µM (inactive). In addition, the GI50 was 45.5 µM (inactive) in the assay on NCI-H522; > 100 µM (inactive) in the assay with SF-539; 54.6 µM (inactive) with UACC-257; 19.1 µM (inactive) in the assay with HOP-92; > 100 µM (inactive) with OVCAR-4; > 100 µM (inactive) in the assay with EKVX. Besides, the GI50 in the assay with HCC 2998 was 31 µM (inactive); with SF-295, 33.7 µM (inactive); with OVCAR-5, > 100 µM (inactive); in the assay with NCI-H226, > 100 µM (inactive).
With `O=C(NC(=O)c1cn(CCNCCO)c(=O)[nH]c1=O)OCc1ccccc1`, the GI50 in the assay on SK-MEL-5, in the assay on NCI-H23, in the assay with CAKI-1, with SN12C, in the assay on HOP-62 and in the assay with SR was > 100 µM (inactive) each time. For the same compound, the GI50 in the assay on NCI-H522, in the assay on SF-539, in the assay on HOP-92, with OVCAR-4, in the assay with EKVX and in the assay on SF-295 was > 100 µM (inactive) each time. The GI50 in the assay on OVCAR-5 and with NCI-H226 was > 100 µM (inactive) each time.
On to `CNC1(C(=O)O)CC1`, for which the GI50 with SK-MEL-5, in the assay on NCI-H23, in the assay with MDA-MB-435, in the assay on SN12C, in the assay on HOP-62 and in the assay on SNB-19 was > 100 µM (inactive) in each case. Besides, the GI50 in the assay with SR, in the assay with NCI-H522, in the assay with SF-539, with UACC-257, with HOP-92 and in the assay on OVCAR-4 was > 100 µM (inactive) throughout. Moreover, the GI50 in the assay on EKVX, with HCC 2998, in the assay with SF-295, in the assay with OVCAR-5 and in the assay on NCI-H226 was > 100 µM (inactive) throughout.

Values taken from ChEMBL document CHEMBL1201862, “PubChem BioAssay data set” (2004).
